The target of series [1] is KV channel (voltage-gated potassium channel family) (Homo sapiens, UniProt O43525+O43526+O95259+P16389+P17658+P22001+P22459+P22460+P48547+P51787+P56696+Q03721+Q09470+Q12809+Q14003+Q14721+Q16322+Q6PIU1+Q8NCM2+Q8TAE7+Q8TDN1+Q8TDN2+Q92953+Q96KK3+Q96L42+Q96PR1+Q96RP8+Q9BQ31+Q9H252+Q9H3M0+Q9NR82+Q9NS40+Q9NSA2+Q9NZV8+Q9UIX4+Q9UJ96+Q9UK17+Q9ULD8+Q9ULS6+Q9UQ05). The series can be described thus: Binding affinity to KV channel (unknown origin) assessed as specific binding at 10 uM relative to control. Type of series: protein assay. To be noted: read-out: Activity.

The species entered for a further series is Homo sapiens. The note with it: dose 10.0 µM.
Series [2] concerns the target Histone acetyltransferase KAT2A (Homo sapiens) (UniProt Q92830). The note with it: dose 10.0 µM.

Structures are written as SMILES.

Sequence of Histone acetyltransferase KAT2A (Homo sapiens) (Q92830 2-837 limits assumed): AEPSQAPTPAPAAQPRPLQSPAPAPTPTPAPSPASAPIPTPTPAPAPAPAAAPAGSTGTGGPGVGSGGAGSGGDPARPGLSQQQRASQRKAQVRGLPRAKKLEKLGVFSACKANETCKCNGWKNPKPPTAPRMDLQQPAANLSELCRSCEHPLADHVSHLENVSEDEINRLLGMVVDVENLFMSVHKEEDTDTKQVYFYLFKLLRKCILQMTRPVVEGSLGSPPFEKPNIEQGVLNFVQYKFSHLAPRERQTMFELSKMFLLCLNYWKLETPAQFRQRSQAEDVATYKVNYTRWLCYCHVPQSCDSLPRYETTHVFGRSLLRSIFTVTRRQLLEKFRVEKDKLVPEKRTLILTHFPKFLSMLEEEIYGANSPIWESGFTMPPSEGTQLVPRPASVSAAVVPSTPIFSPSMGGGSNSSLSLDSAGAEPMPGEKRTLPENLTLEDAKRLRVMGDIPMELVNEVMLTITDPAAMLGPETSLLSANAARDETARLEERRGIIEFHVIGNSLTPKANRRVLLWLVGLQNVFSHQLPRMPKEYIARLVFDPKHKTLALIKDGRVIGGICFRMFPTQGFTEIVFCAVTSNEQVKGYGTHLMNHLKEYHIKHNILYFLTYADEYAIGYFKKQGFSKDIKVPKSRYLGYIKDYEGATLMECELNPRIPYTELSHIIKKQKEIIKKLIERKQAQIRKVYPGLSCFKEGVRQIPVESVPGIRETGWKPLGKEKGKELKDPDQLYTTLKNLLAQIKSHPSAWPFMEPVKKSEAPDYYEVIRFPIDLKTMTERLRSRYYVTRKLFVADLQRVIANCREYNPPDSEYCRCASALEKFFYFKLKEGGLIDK

As for `COc1cc2c(cc1NS(=O)(=O)c1ccc(Br)cc1C)n(C)c(=O)n2C`, the activity at 10 µM in series [1] came out at 124%. For the same compound, the thermal shift (ΔTm) (as a rule, the change in melting temperature against a reference sample) is 3.3 °C in the series listed under Homo sapiens and -0.4 °C in series [2].

(Values after ChEMBL document CHEMBL5715956, “Selective Targeting of Bromodomains of the Bromodomain-PHD Fingers Family Impairs Osteoclast Differentiation” (ACS Chem Biol, 2017).)
